# Reference: US20160137630A1, “INDUCTION OF GATA2 BY HDAC1 AND HDAC2 INHIBITORS” (ACETYLON PHARMACEUTICALS, INC., priority 2014, published 2016)
# Where “and” joins values, the source holds several entries; their conditions need not be identical. Identical values can stand only once. Like-named read-outs stand apart in the source and are kept apart here.
# Assays:
# Experiment in all cases: in vitro biochemical HDAC inhibition assay
# HDAC1 = HDAC1 (Homo sapiens, UniProt Q13547); settings: read-out: IC50 HDAC1
# Sequence of HDAC1 (Q13547 whole entry): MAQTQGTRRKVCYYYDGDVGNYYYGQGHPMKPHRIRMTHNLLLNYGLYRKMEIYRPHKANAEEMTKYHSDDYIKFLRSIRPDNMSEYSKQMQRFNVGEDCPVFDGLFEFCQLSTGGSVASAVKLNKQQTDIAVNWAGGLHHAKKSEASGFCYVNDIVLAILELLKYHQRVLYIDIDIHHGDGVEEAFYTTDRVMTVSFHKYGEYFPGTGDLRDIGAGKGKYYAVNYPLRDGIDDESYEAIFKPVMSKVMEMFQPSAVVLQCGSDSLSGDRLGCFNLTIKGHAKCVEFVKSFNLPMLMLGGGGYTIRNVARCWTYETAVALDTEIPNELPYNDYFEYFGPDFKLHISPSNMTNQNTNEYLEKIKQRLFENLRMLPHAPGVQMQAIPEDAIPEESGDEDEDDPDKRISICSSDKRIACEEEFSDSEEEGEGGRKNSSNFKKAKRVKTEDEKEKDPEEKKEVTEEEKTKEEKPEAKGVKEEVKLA
# HDAC3 = HDAC3 (Homo sapiens, UniProt O15379); settings: read-out: IC50 HDAC3
# Sequence of HDAC3 (O15379 whole entry): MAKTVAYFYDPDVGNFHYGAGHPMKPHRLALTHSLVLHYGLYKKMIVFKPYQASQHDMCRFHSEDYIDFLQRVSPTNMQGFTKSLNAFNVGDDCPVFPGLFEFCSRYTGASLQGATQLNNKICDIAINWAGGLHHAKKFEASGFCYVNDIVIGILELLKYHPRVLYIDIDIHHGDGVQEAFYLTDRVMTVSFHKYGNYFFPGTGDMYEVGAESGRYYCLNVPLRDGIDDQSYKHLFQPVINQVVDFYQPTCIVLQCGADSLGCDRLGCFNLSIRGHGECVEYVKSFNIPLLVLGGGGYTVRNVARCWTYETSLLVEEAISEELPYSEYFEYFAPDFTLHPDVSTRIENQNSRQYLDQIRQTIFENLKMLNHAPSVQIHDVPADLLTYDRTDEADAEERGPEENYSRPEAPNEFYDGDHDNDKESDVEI
# Sequence of HDAC3 (Q9Y618 395-489 partner limits assumed): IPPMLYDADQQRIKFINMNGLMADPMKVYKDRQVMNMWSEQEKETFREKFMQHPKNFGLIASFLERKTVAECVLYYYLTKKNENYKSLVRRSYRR
# HDAC2 = HDAC2 (Homo sapiens, UniProt Q92769); settings: read-out: IC50 HDAC2
# Sequence of HDAC2 (Q92769 whole entry): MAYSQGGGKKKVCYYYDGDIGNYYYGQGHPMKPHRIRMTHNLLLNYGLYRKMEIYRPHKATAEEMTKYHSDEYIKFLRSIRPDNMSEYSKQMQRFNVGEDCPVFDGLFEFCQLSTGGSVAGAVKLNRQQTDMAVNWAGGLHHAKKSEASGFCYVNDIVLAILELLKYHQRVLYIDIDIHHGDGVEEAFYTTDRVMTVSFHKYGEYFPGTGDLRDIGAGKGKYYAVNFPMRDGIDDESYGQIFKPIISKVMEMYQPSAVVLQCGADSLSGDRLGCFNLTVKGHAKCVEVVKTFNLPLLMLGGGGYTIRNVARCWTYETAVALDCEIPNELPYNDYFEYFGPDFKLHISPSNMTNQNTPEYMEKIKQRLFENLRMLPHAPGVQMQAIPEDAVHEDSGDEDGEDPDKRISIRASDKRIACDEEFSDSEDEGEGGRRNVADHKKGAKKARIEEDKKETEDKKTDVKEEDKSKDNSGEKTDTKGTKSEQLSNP
IC50 (HDAC1; Table 4) [nM],IC50 (HDAC3; Table 4) [nM],IC50 (HDAC2; Table 4) [nM],IC50 (HDAC1; Table 2) [nM],IC50 (HDAC3; Table 2) [nM],IC50 (HDAC2; Table 2),Compound
1400,23,> 2000,–,–,–,Nc1ccccc1NC(=O)c1ccc(N2CCNCC2)cc1C1CC1 [Compound 2006]
8.53,259,31.5,–,–,–,CN1CCN(C(=O)N2CCC(C)(Nc3ncc(C(=O)Nc4cc(-c5cccs5)ccc4N)cn3)CC2)CC1 [Compound 2009]
–,–,–,7,71,12 nM,Nc1ccc(-c2cccs2)cc1NC(=O)c1ccc2nc(N3CCNCC3)cnc2c1 [N-(2-amino-5-(thiophen-2-yl)phenyl)-2-(piperazin-1-yl)quinoxaline-6-carboxamide]
–,–,–,944,> 2000,667 nM,COCCN(C)c1cc2ncc(C(=O)Nc3cc(-c4cccs4)ccc3N)cc2cc1C1CC1 [N-(2-amino-5-(thiophen-2-yl)phenyl)-6-cyclopropyl-7-((2-methoxyethyl)(methyl)amino)quinoline-3-carboxamide]
–,–,–,89,1550,243 nM,COCCNc1cc2ncc(C(=O)Nc3cc(-c4cccs4)ccc3N)cc2cc1C1CC1 [N-(2-amino-5-(thiophen-2-yl)phenyl)-6-cyclopropyl-7-((2-methoxyethyl)amino)quinoline-3-carboxamide]
–,–,–,3.1,99,14 nM,Nc1ccc(-c2cccs2)cc1NC(=O)c1cnc2c(C3CC3)c(N3CCNCC3)ccc2c1 [N-(2-amino-5-(thiophen-2-yl)phenyl)-8-cyclopropyl-7-(piperazin-1-yl)quinoline-3-carboxamide]
–,–,–,1210,171,193 nM,Nc1sc(-c2ccccc2)cc1NC(=O)c1cnc2cc(N3CCNCC3)ccc2c1 [N-(2-amino-5-phenylthiophen-3-yl)-7-(piperazin-1-yl)quinoline-3-carboxamide]
–,–,–,> 2000,104,624 nM,Nc1ccccc1NC(=O)c1ccc2nc(N3CCNCC3)ccc2c1 [N-(2-aminophenyl)-2-(piperazin-1-yl)quinoline-6-carboxamide]
–,–,–,> 2000,> 2000,> 2000 nM,Nc1cc(-c2ccccc2)sc1NC(=O)c1cnc2cc(N3CCNCC3)ccc2c1 [N-(3-amino-5-phenylthiophen-2-yl)-7-(piperazin-1-yl)quinoline-3-carboxamide]
–,–,–,1970,798,336 nM,Nc1ccc(-c2ccccc2)nc1NC(=O)c1cnc2cc(N3CCNCC3)ccc2c1 [N-(3-amino-6-phenylpyridin-2-yl)-7-(piperazin-1-yl)quinoline-3-carboxamide]
–,–,–,7.1,175,11 nM,"CN1CCN(CCn2ccc3cc(C(=O)Nc4cc(-c5ccccc5)ccc4N)ccc32)CC1 [N-(4-amino-[1,1′-biphenyl]-3-yl)-1-(2-(4-methylpiperazin-1-yl)ethyl)-1H-indole-5-carboxamide]"
–,–,–,7.4,344,19 nM,"Nc1ccc(-c2ccccc2)cc1NC(=O)c1ccc2c(cnn2CCN2CCOCC2)c1 [N-(4-amino-[1,1′-biphenyl]-3-yl)-1-(2-morpholinoethyl)-1H-indazole-5-carboxamide]"
–,–,–,6.8,373,31 nM,"Nc1ccc(-c2ccccc2)cc1NC(=O)c1cnc2c(ccn2CCN2CCOCC2)c1 [N-(4-amino-[1,1′-biphenyl]-3-yl)-1-(2-morpholinoethyl)-1H-pyrrolo[2,3-b]pyridine-5-carboxamide]"
–,–,–,–,> 2000,301 nM,"COCCNc1ccc2cc(C(=O)Nc3cc(-c4ccccc4)ccc3N)cnc2c1C1CC1 [N-(4-amino-[1,1′-biphenyl]-3-yl)-8-cyclopropyl-7-((2-methoxyethyl)amino)quinoline-3-carboxamide]"
–,–,–,1230,–,1190 nM and 1880 nM,Nc1cnc(-c2ccccc2)cc1NC(=O)c1cnc2cc(N3CCNCC3)ccc2c1 [N-(5-amino-2-phenylpyridin-4-yl)-7-(piperazin-1-yl)quinoline-3-carboxamide]
